Source: patent US9096593B2, “Compounds and methods for kinase modulation, and indications therefor” (Plexxikon Inc., priority 2009, dated 2015)
Like-named read-outs stand apart in the source and are kept apart here.

Experiments:
Flt-3 kinase = Flt-3 kinase (Homo sapiens (Human), UniProt P36888); assay: Flt-3 kinase biochemical activity assay (AlphaScreen, biotin-(E4Y)10 phosphorylation); conditions: 100 μM ATP
Procedure: In one assay the biochemical activity IC50 values are determined with respect to inhibition of Flt-3 kinase activity, where inhibition of phosphorylation of a peptide substrate is measured as a function of compound concentration. Compounds to be tested, dissolved in DMSO (1 μL), are added to a white 384-well plate (Costar #3705). Working stocks of Flt-3 kinase (Invitrogen), biotin-(E4Y)10 substrate (Upstate Biotech, Cat#12-440), and ATP (Sigma, Cat#A-3377) are prepared in 25 mM Hepes pH 7.5, 5 mM MgCl2, 5 mM MnCl2, 1 mM DTT, and 0.01% Tween-20. All components are added to the 384-well plate for a final concentration of 1 ng/well Flt-3, 30 nM biotin-(E4Y)10 and 100 μM ATP in a volume of 20 μL. Each sample is at 5% DMSO. The plate is then incubated for 1 hour at room temperature. Just before use, working stocks of donor and acceptor beads from the AlphaScreen PY20 Detection Kit (PerkinElmer, Cat#676601M) are prepared in 25 mM Hepes pH 7.5, pH 7.4, 100 mM EDTA. 0.3% BSA. To stop the reaction, the plate is uncovered in the dark and 5 μL of Donor Beads solution (Streptavidin beads) is added to each well. The plate is incubated at room temperature for 20 minutes. Five microliters of Acceptor Beads solution (PY20 coated beads) are then added to each well. The final concentration of each bead is 10 μg/mL. The plates are incubated at room temperature for 60 minutes. Fluorescence signal is recorded on the Envision reader. Phosphorylated substrate results in binding of the PY20 antibody and association of the donor and acceptor beads such that signal correlates with kinase activity. The signal vs. compound concentration is used to determine the IC50.

CYP1A2 = CYP1A2 (Homo sapiens (Human), UniProt P05177); assay: CYP enzyme inhibition, fluorescent substrate
Sequence of CYP1A2 (P05177 whole entry): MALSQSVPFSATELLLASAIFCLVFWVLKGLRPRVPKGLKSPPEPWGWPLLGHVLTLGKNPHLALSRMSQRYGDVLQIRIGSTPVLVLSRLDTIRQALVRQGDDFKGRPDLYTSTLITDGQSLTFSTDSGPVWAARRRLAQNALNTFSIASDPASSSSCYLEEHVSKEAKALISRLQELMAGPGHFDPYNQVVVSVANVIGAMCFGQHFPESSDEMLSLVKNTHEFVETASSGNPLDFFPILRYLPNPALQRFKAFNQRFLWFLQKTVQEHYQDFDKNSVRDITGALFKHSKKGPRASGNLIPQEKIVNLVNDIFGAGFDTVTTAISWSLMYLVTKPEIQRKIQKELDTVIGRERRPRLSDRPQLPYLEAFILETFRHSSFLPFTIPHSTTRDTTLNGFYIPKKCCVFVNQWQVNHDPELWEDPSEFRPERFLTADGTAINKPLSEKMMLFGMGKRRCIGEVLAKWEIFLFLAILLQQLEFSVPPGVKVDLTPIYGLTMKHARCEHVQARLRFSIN
Procedure: (§1) CYP (Cytochrome P450) enzymes are the major drug metabolizing enzymes present in the liver. The inhibition of CYP enzyme activity (IC50) for each of CYP1A2, CYP2C19, CYP2C9, CYP2D6, CYP3A4(BFC) and CYP3A4(BQ) is determined for compounds, where inhibition of metabolism of a known substrate leads to a decrease in the fluorescence of the metabolized product. The fluorescence of the product is monitored as a function of compound concentration.
(§2) Compounds are dissolved in DMSO to a concentration of 100 mM. These are diluted 1 μL into 82 μL of acetonitrile. An 11 μL aliquot of this solution is then added to 204 μL of cofactor mix (1.3% NADPH Regeneration system Solution A, 1.04% NADPH Regeneration system Solution B from BD Biosciences, 5% acetonitrile and 0.05% DMSO). These are then serially diluted 1:1 (160 μL to 160 μL co-factor mix) for a total of 10 points. A 10 μL aliquot of this final mixture is dispensed into 384 well assay plates and incubated for 10 minutes at 37° C. Enzyme and substrate mix (10 μL; […] CYP1A2/5 μM CEC; 1.0 μmol CYP2C9/75 μM MFC; […] CYP2C19/25 μM CEC; 1.5 μmol CYP2D6/1.5 μM AMMC; 1.0 μmol CYP3A4/50 μM BFC; or 1.0 μmol CYP3A4/40 μM BQ) is added to these assay plates. Assay plates are incubated at 37° C. (CYP1A2-15 min; CYP2C9-45 min; CYP2C19, 2D6 and 3A4-30 min) and read in a Tecan Safire 2 plate reader (CYP1A2, 2C19 and 3A4 409 ex/460 em; CYP2C9 and 2D6409 ex/530 em). The signal versus compound concentration is used to determine the IC50. The enzymes and substrates for this assay are obtained from BD Biosciences.

CYP2C19 = CYP2C19 (Homo sapiens (Human), UniProt P33261); assay: CYP enzyme inhibition, fluorescent substrate
Sequence of CYP2C19 (P33261 whole entry): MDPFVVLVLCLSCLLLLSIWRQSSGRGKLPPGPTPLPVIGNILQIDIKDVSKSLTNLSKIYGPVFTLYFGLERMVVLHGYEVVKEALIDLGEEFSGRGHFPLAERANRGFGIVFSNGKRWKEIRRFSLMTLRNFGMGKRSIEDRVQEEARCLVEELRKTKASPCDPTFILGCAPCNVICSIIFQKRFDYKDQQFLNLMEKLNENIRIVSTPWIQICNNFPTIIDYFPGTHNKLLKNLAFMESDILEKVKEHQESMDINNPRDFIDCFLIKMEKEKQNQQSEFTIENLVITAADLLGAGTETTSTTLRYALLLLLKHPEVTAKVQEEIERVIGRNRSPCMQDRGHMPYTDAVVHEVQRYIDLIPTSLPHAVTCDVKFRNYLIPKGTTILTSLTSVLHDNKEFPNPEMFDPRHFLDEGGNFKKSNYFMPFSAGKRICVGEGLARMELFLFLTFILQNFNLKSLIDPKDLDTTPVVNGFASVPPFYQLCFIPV
Procedure: as §1, §2

CYP2C9 = CYP2C9 (Homo sapiens (Human), UniProt P11712); assay: CYP enzyme inhibition, fluorescent substrate
Sequence of CYP2C9 (P11712 whole entry): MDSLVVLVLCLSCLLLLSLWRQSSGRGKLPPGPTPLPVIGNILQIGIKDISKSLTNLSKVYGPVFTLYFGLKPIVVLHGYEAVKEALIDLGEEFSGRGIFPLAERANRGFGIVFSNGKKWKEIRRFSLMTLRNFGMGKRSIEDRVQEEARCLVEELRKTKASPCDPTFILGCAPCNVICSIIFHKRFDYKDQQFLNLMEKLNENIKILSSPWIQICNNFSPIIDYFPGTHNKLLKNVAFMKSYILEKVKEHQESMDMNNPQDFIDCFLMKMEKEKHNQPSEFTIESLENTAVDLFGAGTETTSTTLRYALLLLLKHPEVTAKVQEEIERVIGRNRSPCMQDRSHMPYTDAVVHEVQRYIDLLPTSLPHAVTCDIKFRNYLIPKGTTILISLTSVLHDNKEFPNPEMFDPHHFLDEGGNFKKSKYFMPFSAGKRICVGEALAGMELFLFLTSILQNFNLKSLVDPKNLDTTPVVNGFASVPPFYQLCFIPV
Procedure: as §1, §2

CYP2D6 = CYP2D6 (Homo sapiens (Human), UniProt P10635); assay: CYP enzyme inhibition, fluorescent substrate; conditions: read-out: Cyp IC50 (μM) 2D6
Sequence of CYP2D6 (P10635 whole entry): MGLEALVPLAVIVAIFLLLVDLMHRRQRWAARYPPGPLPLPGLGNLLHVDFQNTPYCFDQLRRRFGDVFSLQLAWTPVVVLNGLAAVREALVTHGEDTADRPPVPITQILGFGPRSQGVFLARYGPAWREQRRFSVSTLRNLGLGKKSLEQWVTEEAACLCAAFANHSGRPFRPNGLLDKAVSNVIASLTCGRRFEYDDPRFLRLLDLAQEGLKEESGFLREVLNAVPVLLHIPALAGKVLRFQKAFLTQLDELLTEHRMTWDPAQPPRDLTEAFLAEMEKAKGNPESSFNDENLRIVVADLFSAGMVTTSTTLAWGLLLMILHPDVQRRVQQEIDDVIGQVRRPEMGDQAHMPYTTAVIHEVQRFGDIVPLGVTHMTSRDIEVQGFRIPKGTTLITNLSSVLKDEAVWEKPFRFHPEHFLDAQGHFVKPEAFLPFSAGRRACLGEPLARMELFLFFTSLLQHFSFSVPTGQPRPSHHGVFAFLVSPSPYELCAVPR
Procedure: as §1, §2

CYP3A4(BFC) = CYP3A4(BFC) (Homo sapiens (Human), UniProt P08684); assay: CYP enzyme inhibition, fluorescent substrate
Sequence of CYP3A4(BFC) (P08684 whole entry): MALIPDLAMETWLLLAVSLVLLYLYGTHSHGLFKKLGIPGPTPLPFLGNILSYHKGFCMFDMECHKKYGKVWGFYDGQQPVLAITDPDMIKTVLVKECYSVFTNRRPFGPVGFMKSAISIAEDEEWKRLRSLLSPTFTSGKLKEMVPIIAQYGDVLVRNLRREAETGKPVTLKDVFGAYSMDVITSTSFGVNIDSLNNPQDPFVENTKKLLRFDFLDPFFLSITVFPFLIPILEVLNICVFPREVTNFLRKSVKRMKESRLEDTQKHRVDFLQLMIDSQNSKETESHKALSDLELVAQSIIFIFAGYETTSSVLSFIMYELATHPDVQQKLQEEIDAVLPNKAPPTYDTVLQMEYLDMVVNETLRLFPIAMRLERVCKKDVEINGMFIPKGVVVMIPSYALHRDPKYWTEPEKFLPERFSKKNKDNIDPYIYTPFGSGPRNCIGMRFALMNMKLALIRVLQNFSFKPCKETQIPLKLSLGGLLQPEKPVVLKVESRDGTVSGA
Procedure: as §1, §2

CYP3A4(BQ) = CYP3A4(BQ) (Homo sapiens (Human), UniProt P08684); assay: CYP enzyme inhibition, fluorescent substrate
Sequence of CYP3A4(BQ) (P08684 whole entry): as above
Procedure: as §1, §2

[1] = read-out: Cyp IC50 (μM) 3A4(BQ), BQ substrate
[2] = read-out: Cyp IC50 (μM) 3A4(BFC), BFC substrate
[3] = human, CYP2C9 enzyme (BD Biosciences), 45 min

Sequence of Flt-3 kinase (P36888 27-993): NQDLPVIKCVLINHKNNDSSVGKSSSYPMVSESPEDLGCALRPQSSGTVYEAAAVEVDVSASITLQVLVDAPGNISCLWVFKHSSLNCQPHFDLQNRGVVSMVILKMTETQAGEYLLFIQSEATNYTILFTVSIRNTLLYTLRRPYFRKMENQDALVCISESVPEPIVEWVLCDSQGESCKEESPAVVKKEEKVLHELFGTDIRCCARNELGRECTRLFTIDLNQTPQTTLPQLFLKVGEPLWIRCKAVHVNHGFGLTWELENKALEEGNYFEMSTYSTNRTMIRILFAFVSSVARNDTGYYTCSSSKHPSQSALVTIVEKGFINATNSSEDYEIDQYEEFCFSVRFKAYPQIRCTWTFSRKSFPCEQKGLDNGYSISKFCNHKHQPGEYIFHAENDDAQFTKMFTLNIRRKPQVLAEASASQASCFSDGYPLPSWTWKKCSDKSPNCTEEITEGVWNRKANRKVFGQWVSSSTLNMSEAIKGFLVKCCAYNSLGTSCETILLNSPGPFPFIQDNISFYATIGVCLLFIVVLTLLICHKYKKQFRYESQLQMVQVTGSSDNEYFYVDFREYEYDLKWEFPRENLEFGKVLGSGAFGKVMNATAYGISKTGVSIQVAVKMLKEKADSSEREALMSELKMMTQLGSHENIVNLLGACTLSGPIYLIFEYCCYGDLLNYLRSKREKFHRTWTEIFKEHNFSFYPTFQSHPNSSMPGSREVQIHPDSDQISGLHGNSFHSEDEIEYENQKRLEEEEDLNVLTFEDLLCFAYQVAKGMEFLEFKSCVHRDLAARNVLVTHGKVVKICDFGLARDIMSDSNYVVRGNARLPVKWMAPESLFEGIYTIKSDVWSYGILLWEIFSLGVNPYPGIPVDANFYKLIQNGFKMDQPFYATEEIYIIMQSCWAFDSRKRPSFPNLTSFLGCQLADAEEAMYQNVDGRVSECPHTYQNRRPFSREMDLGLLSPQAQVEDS

SMILES | IC50 (Flt-3 kinase) [µM] | IC50 (CYP1A2; human, 15 min) [µM] | IC50 (CYP2C19; read-out: Cyp IC50 (μM) 2C19) [µM] | IC50 (CYP2C9; read-out: Cyp IC50 (μM) 2C9) [µM] | IC50 (CYP2D6) [µM] | IC50 (CYP3A4(BFC)) [µM] | IC50 (CYP3A4(BQ); [1]) [µM] | IC50 (CYP2C9) [µM] | IC50 (CYP3A4(BFC); [2]) [µM] | IC50 (CYP1A2) [µM] | IC50 (CYP3A4(BQ)) [µM] | IC50 (CYP1A2; read-out: Cyp IC50 (μM) 1A2) [µM] | IC50 (CYP2C9; [3]) [µM] | IC50 (CYP2C19) [µM]
Fc1nc(NCc2ccc(Cl)cn2)ccc1Cc1c[nH]c2ncccc12 [Compound P-2044, (5-Chloro-pyridin-2-ylmethyl)-[6-fluoro-5-(1H-pyrrolo[2,3-b]pyridin-3-ylmethyl)-pyridin-2-yl]-amine] | > 0.1 |  |  |  |  |  |  |  |  |  |  |  |  | 
COc1cnc2[nH]cc(Cc3ccc(NCc4ccc(OC)nc4)nc3F)c2c1 [Compound P-2030, [6-Fluoro-5-(5-methoxy-1H-pyrrolo[2,3-b]pyridin-3-ylmethyl)-pyridin-2-yl]-(6-methoxy-pyridin-3-ylmethyl)-amine] | < 0.1 | > 10 | < 5 | < 5 | > 10 | 5 to 10 | > 10 |  |  |  |  |  |  | 
COc1ccc(CNc2ncc(Cc3c[nH]c4ncc(Cl)cc34)cn2)cn1 [Compound P-2038, [5-(5-Chloro-1H-pyrrolo[2,3-b]pyridin-3-ylmethyl)-pyrimidin-2-yl]-(6-methoxy-pyridin-3-ylmethyl)-amine] | < 0.1 | > 10 | > 10 |  |  |  | > 10 | 5 to 10 | > 10 |  |  |  |  | 
Cc1cnc2[nH]cc(Cc3cnc(NCc4ccc(C(F)(F)F)nc4)c(F)c3)c2c1 [Compound P-2146, [3-Fluoro-5-(5-methyl-1H-pyrrolo[2,3-b]pyridin-3-ylmethyl)-pyridin-2-yl]-(6-trifluoromethyl-pyridin-3-ylmethyl)-amine] |  | > 10 | < 5 |  | > 10 |  | > 10 | 5 to 10 | > 10 |  |  |  |  | 
Cc1cc(CNc2ccc(Cc3c[nH]c4ncc(Cl)cc34)c(F)n2)ccn1 [Compound P-2075, [5-(5-Chloro-1H-pyrrolo[2,3-b]pyridin-3-ylmethyl)-6-fluoro-pyridin-2-yl]-(2-methyl-pyridin-4-ylmethyl)-amine] |  |  | < 5 | < 5 | > 10 |  |  |  | < 5 | 5 to 10 | 5 to 10 |  |  | 
Fc1cncc(CNc2ccc(Cc3c[nH]c4ncc(Cl)cc34)c(F)n2)c1 [Compound P-2001, [5-(5-Chloro-1H-pyrrolo[2,3-b]pyridin-3-ylmethyl)-6-fluoro-pyridin-2-yl]-(5-fluoro-pyridin-3-ylmethyl)-amine] |  | > 10 | < 5 |  | > 10 | 5 to 10 |  | 5 to 10 |  |  | 5 to 10 |  |  | 
COc1ncccc1CNc1ncc(Cc2c[nH]c3ncc(C)cc23)cn1 [Compound P-2139, (2-Methoxy-pyridin-3-ylmethyl)-[5-(5-methyl-1H-pyrrolo[2,3-b]pyridin-3-ylmethyl)-pyrimidin-2-yl]-amine] |  | > 10 | > 10 |  | > 10 | 5 to 10 | > 10 | 5 to 10 |  |  |  |  |  | 
Cc1cnc2[nH]cc(Cc3ccc(NCc4cccnc4F)nc3F)c2c1 [Compound P-2103, [6-Fluoro-5-(5-methyl-1H-pyrrolo[2,3-b]pyridin-3-ylmethyl)-pyridin-2-yl]-(2-fluoro-pyridin-3-ylmethyl)-amine] |  | > 10 | < 5 | < 5 | > 10 | 5 to 10 |  |  |  |  | 5 to 10 |  |  | 
Cc1cnc2[nH]cc(Cc3ccc(NCc4ccc(Cl)nc4)nc3F)c2c1 [Compound P-2088, (6-Chloro-pyridin-3-ylmethyl)-[6-fluoro-5-(5-methyl-1H-pyrrolo[2,3-b]pyridin-3-ylmethyl)-pyridin-2-yl]-amine] |  |  | < 5 | < 5 | > 10 | 5 to 10 |  |  |  |  | 5 to 10 | > 10 |  | 
COc1ccc(CNc2ncc(Cc3c[nH]c4ncc(C)cc34)cc2F)cn1 [Compound P-1562, [3-Fluoro-5-(5-methyl-1H-pyrrolo[2,3-b]pyridin-3-ylmethyl)-pyridin-2-yl]-(6-methoxy-pyridin-3-ylmethyl)-amine] |  | > 10 | > 10 | < 5 | > 10 | 5 to 10 |  |  |  |  | 5 to 10 |  |  | 
COc1cnc2[nH]cc(Cc3ccc(NCc4ccc(Cl)cc4)nc3F)c2c1 [Compound P-2032, (4-Chloro-benzyl)-[6-fluoro-5-(5-methoxy-1H-pyrrolo[2,3-b]pyridin-3-ylmethyl)-pyridin-2-yl]-amine] | < 0.1 |  |  |  | > 10 |  | > 10 |  | > 10 | 5 to 10 |  |  | < 5 | 
COc1ncc(CNc2ncc(Cc3c[nH]c4ncc(C)cc34)cn2)cc1F [Compound P-2073, (5-Fluoro-6-methoxy-pyridin-3-ylmethyl)-[5-(5-methyl-1H-pyrrolo[2,3-b]pyridin-3-ylmethyl)-pyrimidin-2-yl]-amine] |  | > 10 | > 10 | < 5 | > 10 | 5 to 10 | > 10 |  |  |  |  |  |  | 
Cc1cnc2[nH]cc(Cc3cnc(NCc4cccc(N5CCCC5)n4)nc3)c2c1 [Compound P-2082, [5-(5-Methyl-1H-pyrrolo[2,3-b]pyridin-3-ylmethyl)-pyrimidin-2-yl]-(6-pyrrolidin-1-yl-pyridin-2-ylmethyl)-amine] |  | > 10 | < 5 | < 5 | > 10 |  | < 5 |  | < 5 |  |  |  |  | 
Cc1cnc2[nH]cc(Cc3ccc(NCc4ccc(C(F)(F)F)nc4)nc3F)c2c1 [Compound P-2031, [6-Fluoro-5-(5-methyl-1H-pyrrolo[2,3-b]pyridin-3-ylmethyl)-pyridin-2-yl]-(6-trifluoromethyl-pyridin-3-ylmethyl)-amine] | < 0.1 | > 10 |  |  | > 10 | 5 to 10 |  |  |  |  | 5 to 10 |  | < 5 | 
Cc1cnc2[nH]cc(Cc3ccc(NCc4cnccc4C(F)(F)F)nc3F)c2c1 [Compound P-2062, [6-Fluoro-5-(5-methyl-1H-pyrrolo[2,3-b]pyridin-3-ylmethyl)-pyridin-2-yl]-(4-trifluoromethyl-pyridin-3-ylmethyl)-amine] |  | > 10 | < 5 | < 5 | > 10 | 5 to 10 |  |  |  |  | 5 to 10 |  |  | 
FC(F)(F)c1ccncc1CNc1ccc(Cc2c[nH]c3ncc(Cl)cc23)cn1 [Compound P-2063, [5-(5-Chloro-1H-pyrrolo[2,3-b]pyridin-3-ylmethyl)-pyridin-2-yl]-(4-trifluoromethyl-pyridin-3-ylmethyl)-amine] |  | > 10 |  | > 10 | > 10 | 5 to 10 |  |  |  |  | 5 to 10 |  |  | 5 to 10
COc1cnc2[nH]cc(Cc3ccc(NCc4ccccc4Cl)nc3F)c2c1 [Compound P-2034, (2-chloro-benzyl)-[6-fluoro-5-(5-methoxy-1H-pyrrolo[2,3-b]pyridin-3-ylmethyl)-pyridin-2-yl]-amine] | < 0.1 |  |  |  |  |  |  |  |  |  |  |  |  | 
